Measurements as given in patent US7291625B2, “Use of a vitamin combination for the treatment of pruritus and non-infective disorders involving itching and/or inflammation” (priority 1999, dated 2007).
Read-outs that look alike come from different tables or passages of the source.

What was measured:
[1] = system: uremic pruritus and sine materia pruritus forms; assay: Clinical experimentation: systemic niacin or niacinamide alone at pellagra dosage in pruritus forms; conditions: for effectiveness in combating the pruritus forms: systemic administration alone at pellagra dosage, uremic and sine materia pruritus
[2] = system: anal and vulvar pruritus; assay: Clinical case reports: anal and vulvar pruritus; assay type: in vivo, human
Description: (§1) It is advisable to take the medicament by the oral route, after the main meals, with abundant water (at least half a glass). In the event that the treatment is discontinued and the symptoms revert, it is necessary to start again from the 1st phase.
As a first attempt, a gastroenterologist had been consulted for the anal itching, and thereafter a gynaecologist had been consulted for the vulvar itching.
The treatment was continued for 12 more days, and then it was reduced to half the dosage, for 15 days a month.
Then, the patient was given a therapy with 50 mg of nicotinamide twice daily, by oral administration, after the main meals. […] The patient continued to take 50 mg of nicotinamide daily, after dinner, for 15 days, and then they discontinued the treatment.
The treatment was then continued for 15 more days, with half the dosage, and then finally discontinued.

[3] = systemic, 2 to 6 g per day, therapy of hyperlipidemia; cited from earlier work
[4] = system: senile pruritus; assay: Clinical case reports: senile pruritus; assay type: in vivo, human
Description: as §1
3rd case— subject with senile pruritus—The patient had been complaining for about 3 years of a diffused itching, which had become increasingly intense. At first, they consulted their physician, who addressed them to a dermatologist.
The patient was then treated by oral administration of 50 mg of nicotinamide+2.5 mg of riboflavin twice daily. […] Thereafter, the therapy was reduced to half the dosage, for 15 days a month.
4th case— subject with senile pruritus—The patient had been suffering for about 2 years and a half from a diffused continuous itching at the torso and on the upper and lower limbs.
The treatment was continued with half the dose for further 15 days and then it was finally discontinued.
The treatment with half the dose was continued for 15 days, and then it was discontinued.
3rd case— subject with senile pruritus—The patient had been suffering for about one year from a diffused itching. […] Thereafter, the diagnosis of senile itching was made.

[5] = system: uremic pruritus; assay: Clinical case reports: uremic pruritus (renal dialysis, chronic renal failure or insufficiency); assay type: in vivo, human
Description: In the treatment of uremic subjects who currently undergo dialysis the protocol is the same as for the 1st phase above, but the continuation of the treatment with half the dose will take place starting after each dialysis treatment (also in this case, after the meal and with abundant water).
Thereafter, the patient was treated with 50 mg of nicotinamide+2.5 mg of riboflavin twice daily, by oral administration. […] The patient continued the same therapy for about 15 days, and thereafter the dosage was reduced to one-half, the administration occurring after the dialysis treatment. […]
Lastly, they underwent an additional 3 hours dialysis treatment each week, with carbon filter, for four weeks on end.
The treatment was started with 50 mg of nicotinamide twice daily, to be taken orally after the main meals. […] The patient continued to take 50 mg of nicotinamide after dinner for 15 more days, and then they took 50 mg of the same agent only on the day of the dialytic treatment. […]

[6] = system: uremic pruritus and sine materia pruritus forms; conditions: human, in vivo

NC(=O)c1cccnc1 [nicotinamide]
effectiveness in combating the pruritus forms [1]: not appreciably effective | side effects of flushing and itching ([1]; systemic administration alone at the dosage used for prevention and therapy of pellagra): does not lead to the undesired side effects of flushing and itching | itching after 60 days ([2]; series 2 case 3: anal vulvar pruritus, 50 mg nicotinamide alone twice daily oral): itching was moderate | itching 15 days after discontinuation ([2]; series 2 case 3, nicotinamide alone): itching started to increase again | symptoms after 2 months ([2]; series 3 case 4: anal and vulvar pruritus, 50 mg nicotinamide alone twice daily oral): a decrease of the symptoms was detected | itching at subsequent monthly checks ([2]; series 3 case 4, still taking 50 mg/day nicotinamide): still complained of a moderate itching | adverse side effects at large doses [3]: adverse side effects, including gastrointestinal disturbances (such as abdominal pain and nausea) hepatotoxicity, and, above all, flushing | pruritus after 40 days ([4]; series 2 case 4: senile pruritus, 50 mg nicotinamide alone twice daily oral): pruritus was quite mild | itching about 10 days after discontinuation ([4]; series 2 case 4, nicotinamide alone): itching had started again to increase | itching after 45 days ([4]; series 3 case 3: senile pruritus, 50 mg nicotinamide alone twice daily oral): itching had only slightly decreased | itching at subsequent monthly checks ([4]; series 3 case 3, nicotinamide therapy continued): diffused moderate itching | pruritus after one month and a half ([5]; series 2 case 1: person on renal dialysis, 50 mg nicotinamide alone twice daily oral): pruritus had sensibly decreased | itching at check-up after one month ([5]; series 2 case 1, nicotinamide alone, reduced to 50 mg on dialysis days): still complained of some moderate itching | symptom after 45 days ([5]; series 2 case 2: person on renal dialysis, 50 mg nicotinamide alone twice daily oral): appreciable reduction of the symptom | itching 15 days after discontinuation ([5]; series 2 case 2, nicotinamide alone): itching had started again to gradually increase | itching after 35 days ([5]; series 2 case 5: chronic renal insufficiency, 50 mg nicotinamide alone twice daily oral): some moderate itching | itching about 10 days after discontinuation ([5]; series 2 case 5, nicotinamide alone): itching had started to increase again | itching after 65 days ([5]; series 3 case 1: person on renal dialysis three times weekly, 50 mg nicotinamide alone twice daily oral): itching had only become milder without disappearing | pruritus at check-ups every 2 months ([5]; series 3 case 1, 50 mg nicotinamide after each dialysis treatment): persistent pruritus of a reduced intensity | itching after 50 days ([5]; series 3 case 2: renal insufficiency, 50 mg nicotinamide alone twice daily oral): itching had become milder, without totally disappearing | itching at subsequent periodical checks ([5]; series 3 case 2, continued 50 mg/day nicotinamide): moderate itching diffused on the whole body

O=C(O)c1cccnc1 [niacin, 3-pyridinecarboxylic acid]
side effects of flushing and itching [6]: does not lead to the undesired side effects of flushing and itching | effectiveness in combating the pruritus forms [1]: not appreciably effective | adverse side effects at large doses [3]: adverse side effects, including gastrointestinal disturbances (such as abdominal pain and nausea) hepatotoxicity, and, above all, flushing
